Calls of active or inactive are those of the source.

Test [1] has as its target T1, Sentrin-specific protease 6 (Homo sapiens, UniProt Q9GZR1).
T1 sequence (Q9GZR1 whole entry): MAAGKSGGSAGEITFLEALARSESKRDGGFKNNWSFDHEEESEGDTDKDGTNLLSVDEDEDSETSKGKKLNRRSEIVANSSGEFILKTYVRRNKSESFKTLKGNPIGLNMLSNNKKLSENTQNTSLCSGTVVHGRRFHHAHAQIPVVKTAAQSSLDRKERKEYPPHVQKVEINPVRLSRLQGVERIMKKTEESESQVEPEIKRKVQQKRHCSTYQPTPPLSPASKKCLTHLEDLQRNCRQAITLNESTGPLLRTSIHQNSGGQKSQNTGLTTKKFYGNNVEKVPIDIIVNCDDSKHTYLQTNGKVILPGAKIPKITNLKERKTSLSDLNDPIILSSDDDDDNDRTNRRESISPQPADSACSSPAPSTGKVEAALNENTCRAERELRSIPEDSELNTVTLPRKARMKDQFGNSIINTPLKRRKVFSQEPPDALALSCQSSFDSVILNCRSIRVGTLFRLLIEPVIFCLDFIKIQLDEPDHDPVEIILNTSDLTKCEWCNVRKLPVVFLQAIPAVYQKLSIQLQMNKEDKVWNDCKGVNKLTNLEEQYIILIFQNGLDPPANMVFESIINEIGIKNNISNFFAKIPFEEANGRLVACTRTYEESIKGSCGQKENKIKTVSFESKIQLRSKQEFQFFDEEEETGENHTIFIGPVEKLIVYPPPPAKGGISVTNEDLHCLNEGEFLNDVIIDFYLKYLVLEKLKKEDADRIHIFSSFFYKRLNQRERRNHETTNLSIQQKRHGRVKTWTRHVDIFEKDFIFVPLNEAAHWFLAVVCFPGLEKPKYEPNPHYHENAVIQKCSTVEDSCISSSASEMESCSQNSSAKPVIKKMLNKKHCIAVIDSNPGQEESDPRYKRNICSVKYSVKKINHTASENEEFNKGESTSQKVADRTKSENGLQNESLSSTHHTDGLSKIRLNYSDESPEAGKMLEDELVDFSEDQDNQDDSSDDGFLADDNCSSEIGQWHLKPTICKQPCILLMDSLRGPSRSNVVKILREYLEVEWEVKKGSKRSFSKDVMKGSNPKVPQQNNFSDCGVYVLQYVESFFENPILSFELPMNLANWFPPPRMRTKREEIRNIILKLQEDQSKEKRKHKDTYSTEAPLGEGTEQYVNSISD
Briefly: SENP6 protease inhibitors, SAR follow-up, biochemical, luminescence, set 2 (AID 588598). In kind it is functional.

In test [2] the target is T2, Sentrin-specific protease 8 (Homo sapiens, UniProt Q96LD8).
T2 sequence (Q96LD8 whole entry): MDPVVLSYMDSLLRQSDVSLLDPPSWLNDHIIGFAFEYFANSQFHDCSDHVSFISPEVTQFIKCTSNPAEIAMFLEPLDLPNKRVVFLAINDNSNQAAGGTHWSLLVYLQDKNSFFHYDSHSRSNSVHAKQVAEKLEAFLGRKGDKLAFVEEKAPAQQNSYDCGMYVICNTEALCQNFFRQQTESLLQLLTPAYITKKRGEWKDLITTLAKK
Briefly: SENP8 protease inhibitors, SAR follow-up, biochemical, luminescence, set 2 (AID 588601). Format: functional.

Test [3] has as its target T3, Sentrin-specific protease 7 (Homo sapiens, UniProt Q9BQF6).
T3 sequence (Q9BQF6 whole entry): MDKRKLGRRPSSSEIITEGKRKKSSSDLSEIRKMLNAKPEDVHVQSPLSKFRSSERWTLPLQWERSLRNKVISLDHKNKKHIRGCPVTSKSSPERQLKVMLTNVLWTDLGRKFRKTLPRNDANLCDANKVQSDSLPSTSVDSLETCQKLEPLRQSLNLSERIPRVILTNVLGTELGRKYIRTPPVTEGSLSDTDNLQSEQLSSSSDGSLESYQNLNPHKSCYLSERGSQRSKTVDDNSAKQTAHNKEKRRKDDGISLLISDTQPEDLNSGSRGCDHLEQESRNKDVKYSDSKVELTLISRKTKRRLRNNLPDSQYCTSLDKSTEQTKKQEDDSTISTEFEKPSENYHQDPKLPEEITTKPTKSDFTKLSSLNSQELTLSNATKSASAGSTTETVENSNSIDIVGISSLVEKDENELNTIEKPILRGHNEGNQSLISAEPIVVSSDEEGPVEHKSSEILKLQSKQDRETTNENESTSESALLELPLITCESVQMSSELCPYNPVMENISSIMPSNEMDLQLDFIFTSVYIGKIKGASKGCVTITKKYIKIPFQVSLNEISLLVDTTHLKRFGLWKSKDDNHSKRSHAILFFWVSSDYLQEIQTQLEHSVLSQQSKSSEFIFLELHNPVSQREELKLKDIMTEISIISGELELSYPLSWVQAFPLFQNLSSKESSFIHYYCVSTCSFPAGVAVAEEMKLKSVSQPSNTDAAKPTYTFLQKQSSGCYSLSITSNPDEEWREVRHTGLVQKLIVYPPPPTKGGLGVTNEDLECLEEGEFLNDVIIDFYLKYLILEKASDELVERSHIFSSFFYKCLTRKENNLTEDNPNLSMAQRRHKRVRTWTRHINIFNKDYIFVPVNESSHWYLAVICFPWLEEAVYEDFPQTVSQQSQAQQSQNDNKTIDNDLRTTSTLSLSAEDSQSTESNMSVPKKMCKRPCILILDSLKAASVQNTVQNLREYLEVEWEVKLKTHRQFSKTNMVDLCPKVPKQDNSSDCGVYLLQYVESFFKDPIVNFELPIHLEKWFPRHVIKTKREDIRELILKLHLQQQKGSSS
Briefly: SENP7 protease inhibitors, SAR follow-up, biochemical, luminescence, set 2 (AID 588600). Format: functional.

The target in another test is T4, Caspase-3 (Homo sapiens, UniProt P42574).
T4 sequence (P42574 whole entry): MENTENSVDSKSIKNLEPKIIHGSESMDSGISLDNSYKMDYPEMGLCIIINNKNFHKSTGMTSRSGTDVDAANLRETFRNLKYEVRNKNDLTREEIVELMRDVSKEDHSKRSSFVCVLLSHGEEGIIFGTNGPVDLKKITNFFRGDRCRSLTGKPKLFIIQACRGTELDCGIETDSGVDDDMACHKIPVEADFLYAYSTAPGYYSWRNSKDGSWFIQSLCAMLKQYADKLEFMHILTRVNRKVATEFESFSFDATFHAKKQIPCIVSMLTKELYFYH
Nature of the test: caspase-3 inhibitors as off-family protease, SAR follow-up, selectivity assay for SENP protease inhibitor project, biochemical, luminescence, set 2 (AID 588599). In kind it is functional.

A further test deals with Phospholipase D1 (Homo sapiens, UniProt Q13393). Nature of the test: PLD1 inhibitor potency in cells, dose response (AID 602151).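 Further: cellular PLD1 assay in Calu-1 cells stimulated with PMA.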 In kind it is functional.
For another test, the target named is Phospholipase D2 (Homo sapiens, UniProt O14939). Briefly: PLD2 inhibitor potency in cells, dose response (AID 602147).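 Further: cellular assay in HEK293 cells overexpressing GFP-tagged PLD2.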 In kind it is functional.
The nature of test [4]: control 3'UTR Renilla luciferase suppression, dose response, counter-screen for Shn3 inhibitor project, cell-based, Clone20-Shn3RL, cherry-picked (AID 624133). In kind it is functional.
A short description of test [5]: cytotoxicity in MIN6 insulinoma cells, dose response, cytotoxicity control, cell-based, mouse insulinoma (AID 2122).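 Further: confirmatory high-throughput counterscreen run to flag cytotoxic compounds; mouse MIN-6 beta cells carrying an insulin promoter eGFP reporter.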 In kind it is functional.
Test [6] in a line: NIH-3T3 fibroblast cytotoxicity, dose response, cytotoxicity control, cell-based, fluorescence, Alamar Blue, secondary assay (AID 2327).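 Further: NIH-3T3 mouse fibroblasts cultured with fluconazole at 8 µg/mL.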 In kind it is functional.
In test [7] the target is ATP-dependent molecular chaperone HSP82 (Candida albicans (strain WO-1) (Yeast), UniProt C4YTQ8). Briefly: loss of DOC-induced GRE-beta-galactosidase reporter signal, dose response, Hsp90 inhibitor project, S. cerevisiae, luminescence (AID 2400).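 Further: beta-galactosidase luminescence from glucocorticoid response element reporter as proxy for Hsp90 function; inhibitor potency where signal loss means Hsp90 inhibition.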 In kind it is functional, cell-based.
Test [8] addresses G-protein coupled receptor 55 (Homo sapiens, UniProt Q9Y2T6). Nature of the test: GPR55 antagonists blocking LPI-driven arrestin recruitment, primary screen, imaging, U2OS, beta-arrestin-GFP, LPI agonist (AID 2013).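 Further: antagonist potency measured as reduced agonist-driven arrestin aggregation.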 Format: functional. Background: Recruitment of arrestin is a read-out of receptor activation apart from second messengers.
Test [9] in a line: Shn3 3'UTR reporter inhibitors, dose response, cell-based, Clone20 osteoblasts, firefly luciferase, cherry-picked (AID 624132).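 Further: firefly luciferase luminescence from reporter carrying the Shn3 3'UTR in osteoblasts.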 In kind it is functional.
Test [10] in a line: HepG2 cell cytotoxicity, dose response, cytotoxicity control for Shn3 inhibitor project, CellTiter-Glo, cherry-picked (AID 624134). In kind it is functional, cell-based. A general note: Cellular ATP, detected with luciferase, serves as a proxy for viable cell number.
Test [11] addresses T5, Ubiquitin-conjugating enzyme E2 N (Homo sapiens, UniProt P61088).
T5 sequence (P61088 whole entry): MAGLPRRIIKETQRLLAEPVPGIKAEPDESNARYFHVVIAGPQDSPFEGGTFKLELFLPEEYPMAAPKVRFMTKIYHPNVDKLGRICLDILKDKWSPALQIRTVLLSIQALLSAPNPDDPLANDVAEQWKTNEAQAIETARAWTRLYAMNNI
Format: functional.

The nature of test [12]: C. albicans growth with fluconazole, confirmation, fluorescence, retest (AID 2467). In kind it is functional, cell-based.
Test [13] in a line: insulin promoter down-regulators in MIN6 cells, imaging, high-content screening, mouse beta cells (AID 1628). Format: functional.
For test [14], the target named is Serine/threonine-protein phosphatase (Candida dubliniensis (strain CD36 / CBS 7987 / NCPF 3949 / NRRLY-17841) (Yeast), UniProt B9W6M3). Briefly: calcineurin pathway inhibitors in yeast reporter, dose response, S. cerevisiae, CDRE-lacZ, luminescence, secondary (AID 2388).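 Further: yeast reporter cells carrying a calcineurin-responsive lacZ construct stimulated with calcium chloride; luminescent beta-galactosidase reporter signal in whole cells rather than isolated phosphatase activity; potency for inhibition where a drop in reporter signal means calcineurin blockade.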 Format: functional, cell-based.
Sequence of Serine/threonine-protein phosphatase (B9W6M3 whole entry): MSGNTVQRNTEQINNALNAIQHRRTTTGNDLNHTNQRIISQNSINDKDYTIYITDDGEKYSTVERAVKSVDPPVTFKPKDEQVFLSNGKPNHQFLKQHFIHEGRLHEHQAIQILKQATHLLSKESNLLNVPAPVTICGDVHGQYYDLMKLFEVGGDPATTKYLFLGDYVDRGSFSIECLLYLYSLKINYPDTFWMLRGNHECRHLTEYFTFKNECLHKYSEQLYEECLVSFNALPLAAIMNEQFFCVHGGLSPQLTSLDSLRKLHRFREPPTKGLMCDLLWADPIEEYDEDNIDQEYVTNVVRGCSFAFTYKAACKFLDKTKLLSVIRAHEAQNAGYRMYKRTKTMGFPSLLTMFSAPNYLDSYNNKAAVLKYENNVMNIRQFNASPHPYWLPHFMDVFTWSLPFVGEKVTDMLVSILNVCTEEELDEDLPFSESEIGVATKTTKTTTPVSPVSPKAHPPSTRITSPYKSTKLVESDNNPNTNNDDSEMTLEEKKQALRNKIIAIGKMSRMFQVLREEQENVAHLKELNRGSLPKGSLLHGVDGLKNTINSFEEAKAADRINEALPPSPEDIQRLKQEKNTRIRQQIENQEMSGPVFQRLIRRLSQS

Sequence of G-protein coupled receptor 55 (Q9Y2T6 whole entry): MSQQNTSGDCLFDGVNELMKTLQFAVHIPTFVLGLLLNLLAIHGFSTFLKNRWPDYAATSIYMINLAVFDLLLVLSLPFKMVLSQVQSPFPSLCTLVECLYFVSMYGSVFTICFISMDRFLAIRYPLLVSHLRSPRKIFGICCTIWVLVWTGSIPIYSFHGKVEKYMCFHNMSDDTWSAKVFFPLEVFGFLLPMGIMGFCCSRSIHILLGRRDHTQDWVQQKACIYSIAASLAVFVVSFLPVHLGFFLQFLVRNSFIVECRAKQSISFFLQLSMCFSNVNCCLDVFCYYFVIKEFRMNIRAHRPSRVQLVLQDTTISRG
Sequence of Phospholipase D2 (O14939 whole entry): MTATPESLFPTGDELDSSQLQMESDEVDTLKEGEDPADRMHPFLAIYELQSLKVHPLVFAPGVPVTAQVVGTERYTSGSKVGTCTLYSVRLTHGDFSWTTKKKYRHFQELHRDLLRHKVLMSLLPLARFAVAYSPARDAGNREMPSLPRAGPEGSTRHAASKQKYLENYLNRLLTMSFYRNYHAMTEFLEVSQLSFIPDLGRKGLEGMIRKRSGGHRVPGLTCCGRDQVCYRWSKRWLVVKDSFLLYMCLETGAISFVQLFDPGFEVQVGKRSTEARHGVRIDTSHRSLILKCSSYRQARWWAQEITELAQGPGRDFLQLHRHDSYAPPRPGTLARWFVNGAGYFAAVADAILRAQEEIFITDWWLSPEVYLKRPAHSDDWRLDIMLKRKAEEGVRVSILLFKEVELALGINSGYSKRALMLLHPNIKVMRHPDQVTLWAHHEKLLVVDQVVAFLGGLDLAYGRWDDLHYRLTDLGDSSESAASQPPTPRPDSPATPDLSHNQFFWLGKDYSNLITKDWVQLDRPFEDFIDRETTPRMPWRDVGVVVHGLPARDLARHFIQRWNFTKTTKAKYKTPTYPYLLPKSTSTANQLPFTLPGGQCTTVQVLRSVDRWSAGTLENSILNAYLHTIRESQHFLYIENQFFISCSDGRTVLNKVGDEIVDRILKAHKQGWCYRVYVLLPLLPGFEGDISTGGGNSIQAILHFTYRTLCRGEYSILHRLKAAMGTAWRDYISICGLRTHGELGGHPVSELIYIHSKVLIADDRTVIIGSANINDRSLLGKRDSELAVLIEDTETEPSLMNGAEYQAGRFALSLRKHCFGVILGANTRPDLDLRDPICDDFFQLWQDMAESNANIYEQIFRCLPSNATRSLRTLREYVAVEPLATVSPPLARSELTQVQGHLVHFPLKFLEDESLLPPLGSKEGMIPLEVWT
Sequence of Phospholipase D1 (Q13393 whole entry): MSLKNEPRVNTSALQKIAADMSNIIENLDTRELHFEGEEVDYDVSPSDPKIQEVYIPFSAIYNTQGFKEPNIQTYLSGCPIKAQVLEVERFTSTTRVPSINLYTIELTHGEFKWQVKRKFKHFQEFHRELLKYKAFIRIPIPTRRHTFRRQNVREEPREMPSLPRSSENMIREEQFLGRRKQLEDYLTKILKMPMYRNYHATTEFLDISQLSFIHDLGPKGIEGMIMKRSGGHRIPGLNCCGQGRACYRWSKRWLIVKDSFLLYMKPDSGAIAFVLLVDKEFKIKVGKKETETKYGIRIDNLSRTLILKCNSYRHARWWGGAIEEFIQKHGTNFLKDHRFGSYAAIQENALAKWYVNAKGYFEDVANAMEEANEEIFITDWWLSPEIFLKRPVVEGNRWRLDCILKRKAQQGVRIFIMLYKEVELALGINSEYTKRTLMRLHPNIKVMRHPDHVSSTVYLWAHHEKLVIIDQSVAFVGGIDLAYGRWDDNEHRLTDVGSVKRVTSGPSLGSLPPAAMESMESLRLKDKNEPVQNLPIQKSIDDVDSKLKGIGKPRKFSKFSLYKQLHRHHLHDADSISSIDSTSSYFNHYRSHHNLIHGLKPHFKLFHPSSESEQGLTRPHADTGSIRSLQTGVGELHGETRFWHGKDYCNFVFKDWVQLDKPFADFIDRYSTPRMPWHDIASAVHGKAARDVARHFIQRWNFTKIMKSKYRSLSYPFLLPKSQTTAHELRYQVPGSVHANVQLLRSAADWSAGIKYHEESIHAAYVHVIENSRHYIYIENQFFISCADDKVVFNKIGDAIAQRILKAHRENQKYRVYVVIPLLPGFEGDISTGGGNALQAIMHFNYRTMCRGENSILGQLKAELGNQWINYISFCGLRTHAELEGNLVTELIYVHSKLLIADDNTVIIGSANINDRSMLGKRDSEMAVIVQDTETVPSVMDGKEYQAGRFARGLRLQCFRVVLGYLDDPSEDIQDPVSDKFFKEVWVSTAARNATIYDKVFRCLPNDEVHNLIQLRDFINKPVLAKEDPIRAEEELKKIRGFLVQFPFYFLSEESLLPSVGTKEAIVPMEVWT
Sequence of ATP-dependent molecular chaperone HSP82 (C4YTQ8 whole entry): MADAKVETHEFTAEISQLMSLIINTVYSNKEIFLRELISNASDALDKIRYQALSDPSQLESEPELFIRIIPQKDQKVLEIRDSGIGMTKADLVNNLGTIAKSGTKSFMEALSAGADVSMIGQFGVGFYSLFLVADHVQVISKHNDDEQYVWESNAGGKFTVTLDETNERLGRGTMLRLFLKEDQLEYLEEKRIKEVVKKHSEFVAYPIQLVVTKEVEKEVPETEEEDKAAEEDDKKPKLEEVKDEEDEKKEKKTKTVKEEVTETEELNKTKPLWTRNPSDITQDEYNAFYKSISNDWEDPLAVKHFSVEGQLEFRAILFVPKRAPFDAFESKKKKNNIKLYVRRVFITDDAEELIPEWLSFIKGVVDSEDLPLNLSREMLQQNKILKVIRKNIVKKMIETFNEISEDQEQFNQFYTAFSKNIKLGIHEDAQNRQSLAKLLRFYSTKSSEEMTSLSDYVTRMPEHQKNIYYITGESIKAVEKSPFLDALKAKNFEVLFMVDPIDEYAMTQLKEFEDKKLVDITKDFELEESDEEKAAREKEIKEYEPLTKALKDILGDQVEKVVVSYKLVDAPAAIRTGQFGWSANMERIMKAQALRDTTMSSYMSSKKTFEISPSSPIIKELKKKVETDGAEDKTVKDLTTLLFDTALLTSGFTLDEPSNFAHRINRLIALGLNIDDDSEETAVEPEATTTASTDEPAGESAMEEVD

For `Cc1ccccc1-c1noc(/C(C#N)=C\c2ccccc2F)n1`, the IC50 (in test [1]; in test [2]; in test [3]; at Caspase-3) was > 99 µM (inactive) in each case.
`O=C(NCCN1CCC2(CC1)CCN(c1ccccc1)C2=O)c1cnc2ccccc2c1`: the IC50 (as a rule, the concentration that inhibits the measured activity by half) on Phospholipase D1 was 20 µM (inactive); at Phospholipase D2, 20 µM (active).
`Cc1cc(Nc2ccccc2)nc(NCc2ccccc2)n1`: the AC50 (as a rule, the concentration at which the activity in the assay is half-maximal) in test [4] was 2.54 µM (active); in test [9] it was 1.04 µM (active); in [10] it was 20.5 µM (active). For the same compound, the IC50 was 571 nM (active) in test [5], 2.05 µM (active) in [8], > 20 µM (inactive) in [11] and 927 nM (active) in test [13]. The EC50 (usually the concentration needed to bring the measured effect to its halfway point) in test [6] is > 150 µM (inactive); in [7] it was > 150 µM (inactive); in test [12], 783 nM (active); in test [14], > 180 µM (inactive).

For the origin of these results see ChEMBL document CHEMBL1201862, “PubChem BioAssay data set” (2004).
